Data from patent publication US12077503B2, “Substituted cyclic amides and their use as herbicides” (FMC CORPORATION, priority 2015, dated 2024).

Assays:
Type in all cases: in vivo
Kochia (Kochia scoparia) [1] = assay: Test A preemergence; details: Bassia scoparia, pre-emergence, 240 h, 0 to 100 scale where 0 is no effect and 100 is complete control, read-out: Kochia plant response rating
Summary of the method: (§1)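 Preemergence soil spray on seeded pots or post-emergence spray on 1–2 leaf plants, in loam–sand blend. Greenhouse ~10 d. Visual rating 0–100 against untreated plants.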

[2] = system: barnyardgrass (Echinochloa crus-galli); assay: Test A preemergence; details: Echinochloa crus-galli, pre-emergence, 240 h, 0 to 100 scale where 0 is no effect and 100 is complete control, read-out: Barnyardgrass plant response rating
Summary of the method: as §1

[3] = system: giant foxtail (Setaria faberii); assay: Test A preemergence; details: Setaria faberi, pre-emergence, 240 h, 0 to 100 scale where 0 is no effect and 100 is complete control, read-out: Foxtail, Giant plant response rating
Summary of the method: as §1

[4] = system: pigweed (Amaranthus retroflexus); assay: Test A preemergence; details: Amaranthus retroflexus, pre-emergence, 240 h, 0 to 100 scale where 0 is no effect and 100 is complete control, read-out: Pigweed plant response rating
[5] = system: ragweed (common ragweed, Ambrosia elatior); assay: Test A preemergence; details: Ambrosia artemisiifolia, pre-emergence, 240 h, 0 to 100 scale where 0 is no effect and 100 is complete control, read-out: Ragweed plant response rating
Summary of the method: as §1

[6] = system: ryegrass, Italian (Italian ryegrass, Lolium multiflorum); assay: Test A preemergence; details: Lolium multiflorum, pre-emergence, 240 h, 0 to 100 scale where 0 is no effect and 100 is complete control, read-out: Ryegrass, Italian plant response rating
Summary of the method: as §1

[7] = system: Galium (catchweed bedstraw, Galium aparine); assay: Test A postemergence; details: Galium, post-emergence, 240 h, read-out: Galium plant response rating (0 to 100 scale)
Summary of the method: as §1

Kochia (Kochia scoparia) [8] = assay: Test A postemergence; details: Bassia scoparia, post-emergence, 240 h, read-out: Kochia plant response rating (0 to 100 scale)
Summary of the method: as §1

[9] = system: barnyardgrass (Echinochloa crus-galli); assay: Test A postemergence; details: Echinochloa crus-galli, post-emergence, 240 h, read-out: Barnyardgrass plant response rating (0 to 100 scale)
Summary of the method: as §1

[10] = system: blackgrass (Alopecurus myosuroides); assay: Test A postemergence; details: Alopecurus myosuroides, post-emergence, 240 h, read-out: Blackgrass plant response rating (0 to 100 scale)
Summary of the method: as §1

corn (Zea mays) = assay: Test A postemergence; details: Zea mays, post-emergence, 240 h, read-out: Corn plant response rating (0 to 100 scale)
Summary of the method: as §1

[11] = system: giant foxtail (Setaria faberii); assay: Test A postemergence; details: Setaria faberi, post-emergence, 240 h, read-out: Foxtail, Giant plant response rating (0 to 100 scale)
Summary of the method: as §1

[12] = system: pigweed (Amaranthus retroflexus); assay: Test A postemergence; details: Amaranthus retroflexus, post-emergence, 240 h, read-out: Pigweed plant response rating (0 to 100 scale)
Summary of the method: as §1

[13] = system: ragweed (common ragweed, Ambrosia elatior); assay: Test A postemergence; details: Ambrosia artemisiifolia, post-emergence, 240 h, read-out: Ragweed plant response rating (0 to 100 scale)
Summary of the method: as §1

[14] = system: ryegrass, Italian (Italian ryegrass, Lolium multiflorum); assay: Test A postemergence; details: Lolium multiflorum, post-emergence, 240 h, read-out: Ryegrass, Italian plant response rating (0 to 100 scale)
Summary of the method: as §1

[15] = system: wheat (Triticum aestivum); assay: Test A postemergence; details: Triticum aestivum, post-emergence, 240 h, Postemergence, 31 g ai/ha; 0 is no effect, 100 is complete control; read-out: Wheat plant response rating (0 to 100 scale)
Summary of the method: as §1

[16] = system: barnyardgrass (Echinochloa crus-galli); assay: Test B flooded paddy test; details: Echinochloa crus-galli, 250 g ai/ha, Flood; 0 to 100 scale where 0 is no effect and 100 is complete control; read-out: Barnyardgrass plant response rating
Summary of the method: (§2)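 Visual ratings (0 none to 100 complete control) are relative to untreated plants, taken 13–15 d after treatment in a greenhouse. Test material went straight into floodwater standing 3 cm above the soil, kept constant, on plants at the 2-leaf stage.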

[17] = system: ducksalad (Heteranthera limosa); assay: Test B flooded paddy test; details: Heteranthera limosa, 250 g ai/ha, Flood; 0 to 100 scale where 0 is no effect and 100 is complete control; read-out: Ducksalad plant response rating
Summary of the method: as §2

rice (Oryra sativa) = assay: Test B flooded paddy test; details: Oryza sativa, 250 g ai/ha, Flood; 0 to 100 scale where 0 is no effect and 100 is complete control; read-out: Rice plant response rating
Summary of the method: as §2

[18] = system: sedge, umbrella (small-flower umbrella sedge, Cyperus difformis); assay: Test B flooded paddy test; details: Cyperus difformis, 250 g ai/ha, Flood; 0 to 100 scale where 0 is no effect and 100 is complete control; read-out: Sedge, Umbrella plant response rating
Summary of the method: as §2

[19] = 125 g ai/ha, preemergence, visual injury rating, approximately 10 d
[20] = 125 g ai/ha, postemergence, visual injury vs untreated controls after approx. 10 d, 0 = no effect, 100 = complete control
[21] = Postemergence, 31 g ai/ha, 0 is no effect, 100 is complete control

Cc1c(F)cccc1NC(=O)[C@H]1C(=O)N(C)C[C@@H]1c1ccc(C(F)F)cc1 [Compound 1261]
pest or weed control at 31 g/ha (Kochia (Kochia scoparia) [1]; 31 g ai/ha, Preemergence): 70%
pest or weed control at 125 g/ha (Kochia (Kochia scoparia) [1]; [19]): 80%
pest or weed control at 31 g/ha ([2]; 31 g ai/ha, Preemergence): 90%
pest or weed control at 125 g/ha [2, 19]: 90%
pest or weed control at 31 g/ha ([3]; 31 g ai/ha, Preemergence): 90%
pest or weed control at 125 g/ha [3, 19]: 90%
pest or weed control at 31 g/ha ([4]; 31 g ai/ha, Preemergence): 0%
pest or weed control at 125 g/ha [4, 19]: 20%
pest or weed control at 31 g/ha ([5]; 31 g ai/ha, Preemergence): 50%
pest or weed control at 125 g/ha [5, 19]: 50%
pest or weed control at 31 g/ha ([6]; 31 g ai/ha, Preemergence): 20%
pest or weed control at 125 g/ha [6, 19]: 30%
pest or weed control at 125 g/ha [7, 20]: 60%
pest or weed control at 31 g/ha [7, 21]: 50%
pest or weed control at 125 g/ha (Kochia (Kochia scoparia) [8]; [20]): 50%
pest or weed control at 31 g/ha (Kochia (Kochia scoparia) [8]; [21]): 20%
pest or weed control at 125 g/ha [9, 20]: 90%
pest or weed control at 31 g/ha [9, 21]: 90%
pest or weed control at 125 g/ha [10, 20]: 60%
pest or weed control at 31 g/ha [10, 21]: 40%
plant injury at 125 g/ha (corn (Zea mays); [20]): 80%
plant injury at 31 g/ha (corn (Zea mays); [21]): 50%
pest or weed control at 125 g/ha [11, 20]: 90%
pest or weed control at 31 g/ha [11, 21]: 90%
pest or weed control at 125 g/ha [12, 20]: 30%
pest or weed control at 31 g/ha [12, 21]: 0%
pest or weed control at 125 g/ha [13, 20]: 30%
pest or weed control at 31 g/ha [13, 21]: 0%
pest or weed control at 125 g/ha [14, 20]: 50%
pest or weed control at 31 g/ha [14, 21]: 20%
plant injury at 31 g/ha [15]: 20%
pest or weed control at 250 g/ha [16]: 75%
pest or weed control at 250 g/ha [17]: 100%
pest or weed control at 250 g/ha (rice (Oryra sativa)): 50%
pest or weed control at 250 g/ha [18]: 0%
